What was measured:
[1] = system: extracellular HBeAg level (surrogate marker for cccDNA) in HepDES19 cells; assay: HepDES19 primary screen assay; format: cell-based, HBV; conditions: Hepatitis B virus, 120 h, 5 days compound incubation, HBeAg ELISA
Text: The assay was employed to primarily screen for novel cccDNA inhibitors. HepDES19 is an engineered cell line which contains a 1.1 unit length HBV genome, and pgRNA transcription from the transgene is controlled by Tetracycline (Tet). In the absence of Tet, pgRNA transcription will be induced, but HBV e antigen (HBeAg) could not be produced from this pgRNA due to the fact that the very short leader sequence before the HBeAg start codondisrupted the start codon. Only after cccDNA is formed, the missing leader sequence and start codon mutation would be restored from the 3′-terminal redundancy of pgRNA, and then HBeAg could be synthesized. Therefore, HBeAg could be used as a surrogate marker for cccDNA (Zhou, T. et al., Antiviral Res(2006), 72(2), 116-124; Guo, H. et al., J. Virol (2007), 81(22), 12472-12484).
HepDES19 cells were seeded at 2×10^6 cells per T150 flask and cultured with the culture medium (Dulbecco's Modified Eagle Medium: Nutrient Mixture F-12 (DMEM:F12, Gibco Cat. 11320-82), 10% Fetal Bovine Serum (FBS, Clontech Cat. 631101), 0.1 mM Non-Essential Amino Acids Solution (NEAA, Gibco Cat. 11140-050), 50 μg/mL Penicillin-Streptomycin (PS, Invitrogen Cat. 15140-163), 500 μg/mL Geneticin (G418, Invitrogen Cat. 10131-027) containing 3 μg/mL Tet (Sigma, Cat. 87128) for 5 days. Cells were then seeded at 4×10^6 cells per T150 in the same culture medium as described above in the absence of Tet for 8 days. Cells were then harvested and frozen at density of 2×10^6 cells per mL. For compound testing, the frozen cells were thawed and seeded into 96-well plates at a density of 6×10^4 cells per well. At 24 hrs after seeding, half log serial dilutions of compounds made with Dimethyl sulfoxide (DMSO, Sigma, Cat. D2650) were further diluted with the same culture medium as described above before they were added to the cells to reach desired final compound concentrations and 1% DMSO concentration. Plates were then incubated at 37° C. for another 5 days before measurement of HBeAg level and cell viability. Extracellular HBeAg level were measured with enzyme-linked immunosorbent assay (ELISA) kit (Shanghai Kehua Diagnostic Medical Products Co., Ltd). Cell viability was assessed using Cell Counting Kit-8 (Donjindo, Cat. CK04-20). IC50 values were derived from the dose-response curve using 4 parameter logistic curve fit method.
The compounds of the present invention were tested for their capacity to inhibit extracellular HBeAg level as described herein.

[2] = system: extracellular HBsAg level in HBV-infected PHH; assay: Cryopreserved primary human hepatocytes (PHH) assay, HBsAg; format: cell-based; conditions: Hepatitis B virus, Hepatocyte, 216 h, read-out: HBsAg IC50
Protocol: Cryopreserved PHH (BioreclamationIVT, Lot YJM) was thawed at 37° C. and gently transferred into pre-warmed InVitroGRO HT medium (BioreclamationIVT, Cat. S03317). The mixture was centrifuged at 70 relative centrifugal force (RCF) for 3 minutes at RT, and the supernatant was discarded. Pre-warmed InVitroGRO CP medium (BioreclamationIVT, Cat # S03316) was added to the cell pellet to gently re-suspend cells. The cells were seeded at the density of 5.8×10^4 cells per well to collagen I coated 96-well plate (Gibco, Cat. A1142803) with the InVitroGRO CP medium. All plates were incubated at 37° C. with 5% CO2 and 85% humidity.
At 20 hours after plating, the medium was changed to PHH culture medium (Dulbecco's Modified Eagle Medium (DMEM)/F12 (1:1) (Gibco, Cat. 11320-033), 10% fetal bovine serum (Gibco Cat. 10099141), 100 U/mL penicillin, 100 μg/mL streptomycin (Gibco, Cat. 151401-122), 5 ng/mL human epidermal growth factor (Invitrogen Cat. PHG0311L), 20 ng/mL dexamethasone (Sigma, Cat. D4902) and 250 ng/mL human recombinant insulin (Gibco, Cat. 12585-014)). And the cells were incubated at 37° C. with 5% CO2 and 85% humidity for 4 hours. The medium was then changed to pre-warmed PHH culture medium containing 4% polyethylene glycol (PEG) MW8000 (Sigma, Cat. P1458-50ML) and 1% DMSO (Sigma, Cat. D2650). 5.8×10^6 genomic equivalents of HBV were added into the medium.
At 24 hours post-infection, the cells were gently washed with PBS and refreshed with PHH culture medium supplemented with 1% DMSO, and 0.25 mg/mL Matrix gel (Corning, Cat. 356237) at 200 μL per well. All plates were immediately placed in at 37° C. CO2 incubator.
24 hours later, serial dilutions of compounds made with DMSO were further diluted with the same culture medium (PHH culture medium supplemented with 1% DMSO and 0.25 mg/mL Matrix gel as described above) before they were added to the cells to reach desired final compound concentrations and 1% DMSO concentration. The medium containing the compounds were refreshed every three days.
At 9 days post-compound treatment, extracellular HBsAg level were measured with Chemiluminescence Immuno Assay (CLIA) kit (Autobio, HBsAg Quantitative CLIA). Extracellular HBV DNA was extracted by MagNA Pure 96 system (Roche) and then determined by quantitative PCR with the following primers and probe: HBV-Forward Primer (SEQ ID NO:2): […] (5′ to 3′); HBV-Reverse Primer (SEQ ID NO:3): […](5′ to 3′); HBV-Probe: 5′+tetramethylrhodamine+SEQ ID NO:4+black hole quencher 2-3′, wherein SEQ ID NO:4 is […].
HBsAg IC50 and HBV DNA IC50 values were derived from the dose-response curve using 4 parameter logistic curve fit method.

O=C(O)C1CCN(c2ccc3c(=O)c4cccc(Cl)c4sc3c2)C1 (centres unmarked) [Example 6, 1-(5-chloro-9-oxo-thioxanthen-3-yl)pyrrolidine-3-carboxylic acid]
IC50 [1]: 4.94 µM | IC50 [2]: 5.06 µM

Cc1cc2c(=O)c3cccc(Cl)c3oc2cc1N1CCC(C(=O)O)C1 (centres unmarked) [Example 39, 1-(5-chloro-2-methyl-9-oxo-xanthen-3-yl)pyrrolidine-3-carboxylic Acid]
IC50 [1]: 1.08 µM | IC50 [2]: 3.18 µM

Cc1ccc(Cl)c2oc3cc(N4CCC(C(=O)O)C4)ccc3c(=O)c12 (centres unmarked) [Example 40, 1-(5-chloro-8-methyl-9-oxo-xanthen-3-yl)pyrrolidine-3-carboxylic Acid]
IC50 [1]: 1.31 µM | IC50 [2]: 1.69 µM

O=C(O)C1CCN(c2cc3oc4c(Cl)cccc4c(=O)c3cn2)C1 (centres unmarked) [Example 41, 1-(6-chloro-10-oxo-chromeno[3,2-c]pyridin-3-yl)pyrrolidine-3-carboxylic Acid]
IC50 [1]: 4.04 µM | IC50 [2]: 8.08 µM

O=C(O)C1CCN(c2cc3oc4c(Cl)cccc4c(=O)c3cc2F)C1 (centres unmarked) [Example 42, 1-(5-chloro-2-fluoro-9-oxo-xanthen-3-yl)pyrrolidine-3-carboxylic Acid]
IC50 [1]: 1.17 µM | IC50 [2]: 7.74 µM

O=C(O)C1CCN(c2cc3oc4c(Cl)cccc4c(=O)c3cc2Cl)C1 (centres unmarked) [Example 43, 1-(2,5-dichloro-9-oxo-xanthen-3-yl)pyrrolidine-3-carboxylic Acid]
IC50 [1]: 1.11 µM | IC50 [2]: 8.22 µM

N#Cc1ccc(Cl)c2oc3cc(N4CCC(C(=O)O)C4)ccc3c(=O)c12 (centres unmarked) [Example 44, 1-(5-chloro-8-cyano-9-oxo-xanthen-3-yl)pyrrolidine-3-carboxylic Acid]
IC50 [1]: 1.1 µM | IC50 [2]: 12.4 µM

O=C(O)C1CCN(c2ccc3c(=O)c4c(O)ccc(Cl)c4oc3c2)C1 (centres unmarked) [Example 53, 1-(5-chloro-8-hydroxy-9-oxo-xanthen-3-yl)pyrrolidine-3-carboxylic Acid]
IC50 [1]: 3.43 µM | IC50 [2]: 8.12 µM

CC(=O)OC(c1cccc(F)c1Cl)C1c2ccc(N3CCCC3)cc2Oc2c(Cl)cccc21 (centres unmarked) [Example 58, [(2-chloro-3-fluoro-phenyl)-(5-chloro-3-pyrrolidin-1-yl-9H-xanthen-9-yl)methyl]acetate]
IC50 [1]: 11.7 µM

OC1(C(F)(F)F)c2ccc(N3CCCC3)cc2Oc2c(Cl)cccc21 (centres unmarked) [Example 59, 5-chloro-3-pyrrolidin-1-yl-9-(trifluoromethyl)xanthen-9-ol]
IC50 [1]: 19.2 µM

COC1(C(F)(F)F)c2ccc(N3CCCC3)cc2Oc2c(Cl)cccc21 (centres unmarked) [Example 60, 1-[5-chloro-9-methoxy-9-(trifluoromethyl)xanthen-3-yl]pyrrolidine]
IC50 [1]: 22.2 µM

FC(F)(F)C1c2ccc(N3CCCC3)cc2Oc2c(Cl)cccc21 (centres unmarked) [Example 61, 1-[5-chloro-9-(trifluoromethyl)-9H-xanthen-3-yl]pyrrolidine]
IC50 [1]: 31 µM

Fc1cccc2c1Oc1cc(N3CCCC3)ccc1C2 [Example 62, 1-(5-fluoro-9H-xanthen-3-yl)pyrrolidine]
IC50 [1]: 3.99 µM

O=c1c2ccc(N3CCCC3)nc2oc2c(F)cccc12 [Example 63, 9-fluoro-2-pyrrolidin-1-yl-chromeno[2,3-b]pyridin-5-one]
IC50 [1]: 19.2 µM

O=c1c2ccc(N3CCCC3)nc2oc2c(Cl)cccc12 [Example 64, 9-chloro-2-pyrrolidin-1-yl-chromeno[2,3-b]pyridin-5-one]
IC50 [1]: 35 µM

O=C(C1CCN(c2ccc3c(=O)c4cccc(Cl)c4oc3c2)C1)N1CCOCC1 (centres unmarked) [Example 65, 5-chloro-3-[3-(morpholine-4-carbonyl)pyrrolidin-1-yl]xanthen-9-one]
IC50 [1]: 3.89 µM

O=C(O)C1CCN(c2ccc3c(=O)c4c(F)ccc(Cl)c4oc3c2)C1 (centres unmarked) [Example 66, 1-(5-chloro-8-fluoro-9-oxo-xanthen-3-yl)pyrrolidine-3-carboxylic Acid]
IC50 [1]: 1.91 µM | IC50 [2]: 8.48 µM

O=C(O)C1CCN(c2ccc3c(=O)c4c(C(F)(F)F)ccc(Cl)c4oc3c2)C1 (centres unmarked) [Example 67, 1-[5-chloro-9-oxo-8-(trifluoromethyl)xanthen-3-yl]pyrrolidine-3-carboxylic Acid]
IC50 [1]: 0.39 µM | IC50 [2]: 1.29 µM

O=c1c2cc(Cl)c(N3CCCC3)cc2oc2c(F)cccc12 [Example 68, 2-chloro-5-fluoro-3-pyrrolidin-1-yl-xanthen-9-one]
IC50 [1]: 1.18 µM

O=C(O)[C@@H]1CCN(c2ccc3c(=O)c4c(Cl)ccc(Cl)c4oc3c2)C1 [Example 69, (3R)-1-(5,8-dichloro-9-oxo-xanthen-3-yl)pyrrolidine-3-carboxylic Acid]
IC50 [1]: 0.96 µM

O=C(O)C1CCN(c2ccc3c(=O)c4cc(Cl)cc(Cl)c4oc3c2)C1 (centres unmarked) [Example 70, 1-(5,7-dichloro-9-oxo-xanthen-3-yl)pyrrolidine-3-carboxylic Acid]
IC50 [1]: 5.9 µM

O=C(O)C1CCN(c2ccc3c(=O)c4cc(F)cc(Cl)c4oc3c2)C1 (centres unmarked) [Example 71, 1-(5-chloro-7-fluoro-9-oxo-xanthen-3-yl)pyrrolidine-3-carboxylic Acid]
IC50 [1]: 13 µM

O=C(O)[C@H]1CCN(c2ccc3c(=O)c4cccc(Cl)c4sc3c2)C1 [Example 72, (3S)-1-(5-chloro-9-oxo-thioxanthen-3-yl)pyrrolidine-3-carboxylic Acid]
IC50 [1]: 3.6 µM

O=C(O)[C@@H]1CCN(c2ccc3c(=O)c4cccc(Cl)c4sc3c2)C1 [Example 73, (3R)-1-(5-chloro-9-oxo-thioxanthen-3-yl)pyrrolidine-3-carboxylic Acid]
IC50 [1]: 2.6 µM

Cc1cc2c(=O)c3cccc(Cl)c3oc2cc1N1CC[C@@H](C(=O)O)C1 [Example 74, (3R)-1-(5-chloro-2-methyl-9-oxo-xanthen-3-yl)pyrrolidine-3-carboxylic Acid]
IC50 [1]: 2.6 µM

CC1c2ccc(N3CCC(C(=O)O)C3)cc2Oc2c(Cl)cccc21 (centres unmarked) [Example 75, 1-(5-chloro-9-methyl-9H-xanthen-3-yl)pyrrolidine-3-carboxylic Acid]
IC50 [1]: 10.1 µM

COc1cc(O[C@@H]2O[C@H](CO)[C@@H](O)[C@H](O)[C@H]2O)c2c(=O)c3c(O)ccc(O)c3oc2c1 [Swertianolin, 5,8-dihydroxy-3-methoxy-1-[(2S,3R,4S,5S,6R)-3,4,5-trihydroxy-6-(hydroxymethyl)tetrahydropyran-2-yl]oxy-xanthen-9-one, reference compound]
IC50 [1]: > 100 µM | IC50 [2]: > 100 µM
